The assay addresses T1, Protein-tyrosine phosphatase 1B (PTP1B) (Homo sapiens, UniProt P18031).
T1 construct: gene PTPN1
T1 sequence (P18031 1-435): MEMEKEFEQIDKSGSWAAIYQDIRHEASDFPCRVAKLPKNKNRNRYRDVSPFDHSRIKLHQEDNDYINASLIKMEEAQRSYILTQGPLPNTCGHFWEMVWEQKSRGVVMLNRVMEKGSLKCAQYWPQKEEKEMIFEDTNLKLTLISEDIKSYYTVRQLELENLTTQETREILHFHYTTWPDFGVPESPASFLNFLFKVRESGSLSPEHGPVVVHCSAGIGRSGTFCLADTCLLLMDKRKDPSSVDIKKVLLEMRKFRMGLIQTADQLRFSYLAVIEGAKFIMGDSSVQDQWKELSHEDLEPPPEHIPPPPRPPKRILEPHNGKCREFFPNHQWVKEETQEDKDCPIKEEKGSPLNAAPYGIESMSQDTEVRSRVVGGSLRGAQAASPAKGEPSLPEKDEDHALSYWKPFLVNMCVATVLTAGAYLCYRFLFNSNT
The experiment in a line: pNPP dephosphorylation assay with human recombinant PTP1B; Lineweaver-Burk and Dixon plots. The assay is classed as biochemical.

Regarding `C=C[C@@]1(C)CCC2=C(C1)C(=O)C[C@H]1C(C)(C)C[C@H](O)C[C@]21C` [compound 1, 2α-hydroxy-7-oxo-pimara-8(9),15-diene], the Ki is 13.7 ± 2.72 µM.

What is called Ki is the dissociation constant of the complex between target and ligand, obtained from inhibition or displacement.
